Measured values published in patent US5256658A, “Angiotensin II inhibitors” (Ortho Pharmaceutical Corporation, priority 1993, dated 1993).

Legend:
angiotensin II receptor [1] = assay: Screening Potential Angiotensin II Receptor Antagonists in Salt-Depleted Normotensive Rats; format: in vivo, rat (Sprague-Dawley)
Experimental: 2. Test Procedure for Screening Potential Angiotensin II Receptor Antagonists in Salt-Depleted Normotensive Rats
Purpose: This test is designed to detect hypotensive effects of a compound after oral dosing in normotensive animals made renin-dependent by salt depletion.
Method: Male 350-450 g Sprague-Dawley rats are implanted with teflon microcannulae via the middle caudal artery under 20 mg/kg intravenous Brevital® anesthesia and permitted a 4-7 day surgical recovery period. Throughout recovery and testing animals are individually housed unrestrained in standard rat metabolism cages and receive continuous 0.5 ml/h intra-arterial 0.25N saline infusion through a spring-shielded swivelling tether connected to an infusion/blood pressure recording system to maintain arterial cannula patency. Animals are maintained on Low Sodium (0.03%) Purina Rat Chow #5881 throughout the study. After the recovery period animals are given oral 50 mg/kg furosemide (Lasix, Hoechst-Roussel Pharmaceutical) doses on two consecutive days to produce marked diuresis and plasma volume depletion that makes maintenance of normal blood pressure highly dependent on function of the renin-angiotensin-aldosteronesystem. Three hours after the second furosemide dose, rats are given test compound uniformly suspended in 1% methylcellulose (n=3/dose level) or 1 mL 1% methylcellulose vehicle (n=3) orally by gavage and blood pressure is continuously recorded for 24 h using a Buxco computerized data recording system. Compound-induced changes in blood pressure are compared to concurrent vehicle control blood pressures in order to detect drug effect.
Interpretation: Prior to salt depletion, normotensive rats typically show a plasma renin activity (PRA, ng angiotensin I/mL plasma/h, RIA) of 0.7. After the salt-depletion protocol PRA values taken 3 h after the furosemide dose have risen to about 7.4.
Compounds that decrease blood pressure 10 or more mmHg (MAP) compared to concurrent control after oral dosing are considered active in this test. Maximum possible response is about -35 mmHg. […]

angiotensin II receptor [2] = assay: Oral activity in the spontaneously hypertensive rat, as determined in test procedure 2; format: in vivo
angiotensin II receptor [3] = molecular target: T1, angiotensin II receptor (Oryctolagus cuniculus, UniProt P34976)
T1 sequence (P34976 1-359): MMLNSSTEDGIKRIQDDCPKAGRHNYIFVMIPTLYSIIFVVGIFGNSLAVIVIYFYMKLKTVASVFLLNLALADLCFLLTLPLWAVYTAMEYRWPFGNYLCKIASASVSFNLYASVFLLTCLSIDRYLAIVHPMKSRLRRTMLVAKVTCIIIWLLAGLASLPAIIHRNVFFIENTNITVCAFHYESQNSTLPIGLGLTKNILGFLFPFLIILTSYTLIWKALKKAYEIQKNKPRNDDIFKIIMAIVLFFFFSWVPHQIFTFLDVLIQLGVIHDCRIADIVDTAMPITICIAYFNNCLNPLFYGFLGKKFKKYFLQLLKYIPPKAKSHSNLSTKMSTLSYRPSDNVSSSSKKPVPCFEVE
Text: Inhibition of Angiotensin II Dose-Response in Rabbit Thoracic Aorta:
Purpose: To identify competitive receptor antagonists of an angiotensin II-1 activity, i.e., angiotensin II-induced vasoconstriction in in vitro aortic rings.
Procedure: 1.8 to 2.3 kg New Zealand white rabbits are sacrificed with an intravenous sodium pentobarbital overdose and the thoracic aorta gently dissected free from the aortic root to the level of the diaphragm, into ice cold Krebs bicarbonate buffer. The aorta is gently freed of clots and adventitia and cleanly cut with a scalpel into 5 mm segments. Each ring is suspended from a Gould isotonic force transducer in a tissue bath containing 15 mL oxygenated Krebs bicarbonate buffer regulated at 37° C. Initial tension is adjusted to 4.0 g and equilibrated over three 20-min wash periods to achieve a baseline tension of 3.0 g. Graded angiotensin II doses are given cumulatively to achieve a maximal contraction. Three 20-min washes are performed to remove the initial angiotensin II effect. […]
Analysis: Angiotensin II vasoconstrictor tension in grams is expressed as a percent of maximal contraction for the before and after test compound angiotensin II dose-responses. Angiotensin II ED50 and ED90 values are determined from the angiotensin II dose-response curves generated before and after test compound. […]

Structure (SMILES) | blood pressure response (angiotensin II receptor [1]; normotensive rats that have not been salt-depleted) | plasma renin activity (PRA) (angiotensin II receptor [1]; salt-depleted rats after DuP-753 treatment, RIA) | blood pressure decrease (mean arterial pressure, MAP) (angiotensin II receptor [1]; salt-depleted rats, typical response) | maximum mean arterial pressure drop (angiotensin II receptor [2]) [mm Hg] | oral activity (angiotensin II receptor [2]) | duration (angiotensin II receptor [2]; duration of blood pressure effect) [h] | Kb (angiotensin II receptor [3]) [nM]
CCCCc1nc(Cl)c(CO)n1Cc1ccc(-c2ccccc2-c2nn[nH]n2)cc1 [DuP-753] | does not change | about 41.4 ng angiotensin I/mL plasma/h | about 35 mmHg | – | – | – | –
C[C@@H]1CN(Cc2ccc(-c3ccccc3-c3nn[nH]n3)cc2)C[C@H](C)O1 [cis-2,6-Dimethyl-4-[4-(2'-tetrazolophenyl)phenylmethyl]morpholine] | – | – | – | 31 | good oral activity | 12 | 123
